Experimental data as given in US6372747B1, “Farnesyl protein transferase inhibitors” (Schering Corporation, priority 1998, dated 2002).

System: COS Cell
Experiment: COS Cell IC50 (Cell-Based Assay)
Conditions: range stated for the group
Description: FPT IC50 (inhibition of farnesyl protein transferase, in vitro enzyme assay) and COS Cell IC50 (Cell-Based Assay) were determined following the assay procedures described in WO 95/10516, published Apr. 20, 1995. GGPT IC50 (inhibition of geranylgeranyl protein transferase, in vitro enzyme assay), Cell Mat Assay, and anti-tumor activity (in vivo anti-tumor studies) could be determined by the assay procedures described in WO 95/10516. The disclosure of WO 95/10516 is incorporated herein by reference thereto.
Work on `CC(C)(CCNC(=O)[C@H]1CN([C@H]2c3ccc(Cl)cc3CCc3cc(Br)cnc32)CCN1C(=O)CC1CCN(C(N)=O)CC1)n1ccnc1` [Example 8] yielded an IC50 of 10 to 920 nM. With `Cc1cn(CCNC(=O)[C@H]2CN(C3c4ccc(Cl)cc4CCc4cc(Br)cnc43)CCN2C(=O)NC2CCCCC2)cn1` (stereo partly shown) [Example 259] the IC50 was at most 35 nM. Work on `CC(C)(C)NC(=O)N1CCN(C2c3ccc(Cl)cc3CCc3cc(Br)cnc32)C[C@@H]1C(=O)NCCCn1ccnc1N` (stereo partly shown) [Example 103] yielded an IC50 of at most 35 nM. In the case of `Cn1cncc1CCCNC(=O)[C@H]1CN(C2c3ccc(Cl)cc3CCc3cc(Br)cnc32)CCN1C(=O)NC1CCCCC1` (stereo partly shown) [Example 101], the IC50 is reported as at most 35 nM. `NC(=O)[C@H](Cc1cnc[nH]1)NC(=O)[C@H]1CN(C2c3ccc(Cl)cc3CCc3cc(Br)cnc32)CCN1C(=O)NC1CCCCC1` (stereo partly shown) [Example 25] showed an IC50 of 10 to 920 nM. Work on `CC(C)(CCNC(=O)[C@H]1CN(C2c3ccc(Cl)cc3CCc3cc(Br)cnc32)CCN1C(=O)NC1CCCCC1)n1ccnc1` (stereo partly shown) [Example 1] yielded an IC50 of 10 to 920 nM.

System: Human tumor cells
Experiment: Soft Agar Assay (anchorage-independent growth)
Assay type: cell-based
Conditions: Homo sapiens, range stated for the group unless single
Description: Anchorage-independent growth is a characteristic of tumorigenic cell lines. Human tumor cells can be suspended in growth medium containing 0.3% agarose and an indicated concentration of a farnesyl transferase inhibitor. The solution can be overlayed onto growth medium solidified with 0.6% agarose containing the same concentration of farnesyl transferase inhibitor as the top layer. After the top layer is solidified, plates can be incubated for 10-16 days at 37° C. under 5% CO2 to allow colony outgrowth. After incubation, the colonies can be stained by overlaying the agar with a solution of MTT (3-[4,5-dimethyl-thiazol-2-yl]-2,5-diphenyltetrazolium bromide, Thiazolyl blue) (1 mg/mL in PBS). Colonies can be counted and the IC50's can be determined.
In the case of `CC(C)(C)OC(=O)N1CCN(C2c3ccc(Cl)cc3CCc3cc(Br)cnc32)C[C@@H]1C(=O)N(CCCn1ccnc1)Cc1cccnc1` (stereo partly shown) [Example 117], the IC50 is reported as 2 to 10 nM. In the case of `Cc1cn(CCCN(Cc2ccccc2)C(=O)[C@H]2CN([C@H]3c4ccc(Cl)cc4CCc4cccnc43)CCN2C(=O)OC(C)C)cn1` [Example 200], the IC50 is reported as 2 to 10 nM. With `CC(C)(C)OC(=O)N1CCN(C2c3ccc(Cl)cc3CCc3cc(Br)cnc32)C[C@@H]1C(=O)N(CCCn1ccnc1)Cc1ccccn1` (stereo partly shown) [Example 217] the IC50 was 2 to 10 nM. Compound `CC(C)(C)NC(=O)N1CCN([C@@H]2c3ccc(Cl)cc3CCc3cc(Br)cnc32)C[C@@H]1C(=O)NCCC(C)(C)n1ccnc1` [Example 11] has an IC50 of 2 to 300 nM. In the case of `Cc1cn(CCCN(Cc2ccccc2)C(=O)[C@H]2CN([C@@H]3c4ccc(Cl)cc4CCc4cc(Br)cnc43)CCN2C(=O)OC(C)C)cn1` [Example 196], the IC50 is reported as 2 to 10 nM. With `CC(C)OC(=O)N1CCN([C@H]2c3ccc(Cl)cc3CCc3cc(Br)cnc32)C[C@@H]1C(=O)NCCC(C)(C)n1ccnc1` [Example 16] the IC50 was 2 to 300 nM. `CC(C)OC(=O)N1CCN([C@H]2c3ccc(Cl)cc3CCc3cccnc32)C[C@@H]1C(=O)N(CCCn1ccnc1)Cc1ccc(F)cc1` [Example 204] showed an IC50 of 2 to 10 nM. `O=C([C@H]1CN([C@@H]2c3ccc(Cl)cc3CCc3cccnc32)CCN1C(=O)OC1CCCCC1)N(CCCn1ccnc1)Cc1ccccc1` [Example 188] showed an IC50 of 2 to 10 nM. `O=C([C@H]1CN([C@H]2c3ccc(Cl)cc3CCc3cc(Br)cnc32)CCN1C(=O)OC1CCCCC1)N(CCCn1ccnc1)Cc1ccccc1` [Example 170] gave an IC50 of 2 to 10 nM. With `Cc1cn(CCCN(Cc2ccccc2)C(=O)[C@H]2CN([C@@H]3c4ccc(Cl)cc4CCc4cccnc43)CCN2C(=O)OC2CCCCC2)cn1` [Example 198] the IC50 was 2 to 10 nM. In the case of `Cc1cn(CCCN(Cc2ccccc2O)C(=O)[C@H]2CN([C@H]3c4ccc(Cl)cc4CCc4cccnc43)CCN2C(=O)OC2CCCCC2)cn1` (single isomer, unassigned) [Example 316], the IC50 is reported as 2 to 10 nM. Work on `O=C(C1CC([C@H]2c3ccc(Cl)cc3CCc3cc(Br)cnc32)CCN1C(=O)NC1CCCCC1)N(CCCn1ccnc1)Cc1ccccc1` (single isomer, unassigned) [Example 79 Step B (Isomer A)] yielded an IC50 of 2 to 300 nM. `CC(C)(C)OC(=O)N1CCC(C2c3ccc(Cl)cc3CCc3cc(Br)cnc32)CC1C(=O)N(CCCn1ccnc1)Cc1ccccc1` (stereo not shown) [Example 88] gave an IC50 of 2 to 300 nM. `Cc1cncn1CCCN(Cc1ccccc1)C(=O)[C@H]1CN([C@H]2c3ccc(Cl)cc3CCc3cccnc32)CCN1C(=O)OC1CCCCC1` (single isomer, unassigned) [Example 325] gave an IC50 of 2 to 10 nM. With `CC(C)(C)OC(=O)N1CCN(C2c3ccc(Cl)cc3CCc3cc(Br)cnc32)C[C@@H]1C(=O)N(CCCn1ccnc1)Cc1ccncc1` (stereo partly shown) [Example 116] the IC50 was 2 to 10 nM. In the case of `O=C([C@H]1CN([C@H]2c3ccc(Cl)cc3CCc3cccnc32)CCN1C(=O)OC1CCCCC1)N(CCCn1ccnc1)Cc1ccccc1` [Example 186], the IC50 is reported as 2 to 10 nM. `CCOC(=O)N1CCC([C@H]2c3ccc(Cl)cc3CCc3cc(Br)cnc32)CC1C(=O)N(CCCn1ccnc1)Cc1ccccc1` (single isomer, unassigned) [80 (Isomer A)] showed an IC50 of 2 to 300 nM. With `CC(C)(C)OC(=O)N1CCN([C@@H]2c3ccc(Cl)cc3CCc3cc(Br)cnc32)C[C@@H]1C(=O)N(CCCn1ccnc1)Cc1cccnc1` [Example 207] the IC50 was 2 to 10 nM. `Cc1cn(CCCN(Cc2ccccc2)C(=O)[C@@H]2CN([C@H]3c4ccc(Cl)cc4CCc4cccnc43)CCN2C(=O)OC2CCCCC2)cn1` (single isomer, unassigned) [Example 321] gave an IC50 of 2 to 10 nM. In the case of `Cc1cn(CCCN(Cc2cccc(Cl)c2)C(=O)[C@H]2CN([C@H]3c4ccc(Cl)cc4CCc4cccnc43)CCN2C(=O)OC2CCCCC2)cn1` [Example 322], the IC50 is reported as 2 to 10 nM. Compound `CC(C)(C)OC(=O)N1CCN([C@@H]2c3ccc(Cl)cc3CCc3cc(Br)cnc32)C[C@@H]1C(=O)N(CCCn1ccnc1)Cc1ccccc1` [Example 160] has an IC50 of 2 to 10 nM. In the case of `Cc1cn(CCCN(Cc2ccccc2)C(=O)[C@H]2CN([C@@H]3c4ccc(Cl)cc4CCc4cc(Br)cnc43)CCN2C(=O)OC2CCCCC2)cn1` [Example 197], the IC50 is reported as 2 to 10 nM. In the case of `Cc1cn(CCCN(Cc2ccccc2)C(=O)[C@H]2CN(C3c4ccccc4CCc4cccnc43)CCN2C(=O)OC2CCCCC2)cn1` (single isomer, unassigned) [Example 372], the IC50 is reported as 2 to 10 nM. `Cc1ncc(CCN(CC2CC2)C(=O)[C@H]2CN([C@H]3c4ccc(Cl)cc4CCc4cccnc43)CCN2C(=O)OC(C)(C)C)n1C` [Example 365] showed an IC50 of 2 to 10 nM. `Cc1cn(CC(O)(CNC(=O)[C@H]2CN(C3c4ccc(Cl)cc4CCc4cccnc43)CCN2C(=O)OC2CCCCC2)c2ccccc2)cn1` (stereo partly shown) [Example 339] gave an IC50 of 2 to 10 nM. With `Cc1cn(CCCN(Cc2ccccc2)C(=O)[C@H]2CN([C@H]3c4ccc(Cl)cc4CCc4cccnc43)CCN2C(=O)OC2CCCCC2)cn1` [Example 225] the IC50 was 2 to 10 nM. For `CC(C)(C)OC(=O)N1CCN([C@H]2c3ccc(Cl)cc3CCc3cc(Br)cnc32)C[C@@H]1C(=O)N(CCCn1ccnc1)Cc1cccnc1` [Example 206], the IC50 was 2 to 10 nM. With `Cc1cn(CCCN(Cc2ccccc2Cl)C(=O)[C@H]2CN([C@H]3c4ccc(Cl)cc4CCc4cccnc43)CCN2C(=O)OC2CCCCC2)cn1` (single isomer, unassigned) [Example 324] the IC50 was 2 to 10 nM. For `Cn1cncc1CCN(CC1CC1)C(=O)[C@H]1CN([C@H]2c3ccc(Cl)cc3CCc3cc(Br)cnc32)CCN1C(=O)OC(C)(C)C` [305 (11s,2R isomer)], the IC50 was 2 to 10 nM. For `CC(C)OC(=O)N1CCN([C@@H]2c3ccc(Cl)cc3CCc3cccnc32)C[C@@H]1C(=O)N(CCCn1ccnc1)Cc1ccccc1` [Example 187], the IC50 was 2 to 10 nM. With `O=C([C@H]1CN([C@H]2c3ccc(Cl)cc3CCc3cccnc32)CCN1C(=O)OC1CCCCC1)N(CCCn1ccnc1CO)Cc1ccccc1` [Example 208] the IC50 was 2 to 10 nM. In the case of `Cc1nccn1CCCN(Cc1ccccc1)C(=O)[C@H]1CN(C2c3ccc(Cl)cc3CCc3cc(Br)cnc32)CCN1C(=O)OC1CCCCC1` (single isomer, unassigned) [Example 382], the IC50 is reported as 2 to 10 nM. With `Cn1cncc1CCCN(Cc1ccccc1)C(=O)[C@H]1CN([C@H]2c3ccc(Cl)cc3CCc3cccnc32)CCN1C(=O)OC1CCCCC1` [Example 335] the IC50 was 2 to 10 nM. In the case of `Cc1cn(CCCN(Cc2ccccc2)C(=O)[C@H]2CN(C3c4ccc(Cl)cc4CCc4cc(Br)cnc43)CCN2C(=O)OC2CCCCC2)c(C)n1` (single isomer, unassigned) [Example 375], the IC50 is reported as 2 to 10 nM.

Same assay, conditions: range stated for the group unless single
Work on `Cc1cn(CCCN(Cc2ccccc2)C(=O)[C@H]2CN([C@H]3c4ccc(Cl)cc4CCc4cccnc43)CCN2C(=O)OC2CCCCC2)cn1` [Example 225] yielded an IC50 of 2 nM.

System: not given
Experiment: not given
Conditions: not given
Compound `CC(C)(C)NC(=O)N1CCN([C@@H]2c3ccc(Cl)cc3CCc3cc(Br)cnc32)C[C@@H]1C(=O)NCCC(C)(C)n1ccnc1` [Example 11] has a melting point of 157 to 159 °C. For `CC(C)OC(=O)N1CCN([C@H]2c3ccc(Cl)cc3CCc3cc(Br)cnc32)C[C@@H]1C(=O)NCCC(C)(C)n1ccnc1` [Example 16], the melting point was 109 to 111 °C. With `CC(C)(CCNC(=O)[C@H]1CN([C@H]2c3ccc(Cl)cc3CCc3cc(Br)cnc32)CCN1C(=O)CC1CCN(C(N)=O)CC1)n1ccnc1` [Example 8] the melting point was 123 to 127 °C. In the case of `NC(=O)[C@H](Cc1cnc[nH]1)NC(=O)[C@H]1CN(C2c3ccc(Cl)cc3CCc3cc(Br)cnc32)CCN1C(=O)NC1CCCCC1` (stereo partly shown) [Example 25], the melting point is reported as 164 to 169 °C. In the case of `CC(C)(CCNC(=O)[C@H]1CN(C2c3ccc(Cl)cc3CCc3cc(Br)cnc32)CCN1C(=O)NC1CCCCC1)n1ccnc1` (stereo partly shown) [Example 1], the melting point is reported as 142 to 144 °C.
